Experiments:
[1] = biological target: mTOR (human recombinant aa mTOR 1360-2549) (Homo sapiens (Human), UniProt P42345); assay: mTOR enzymatic test by TR-FRET (phosphorylation of GFP-4EBP1); type: biochemical
Protocol: Model 1: mTOR Enzymatic Test by TR-FRET (Time-resolved Fluorescence Resonance Energy Transfer).
The test detects the phosphorylation of the substrate GFP-4EBP1 using a terbium-labelled antibody that is specific for the phospho-Thr46 epitope. Binding of the Tb-antibody to the phosphorylated GFP peptide allows the transfer of energy from Tb, excited at 340 nm, to GFP with an increase in the fluorescence emission of the GFP at 520 nm. […] The mixture is incubated for 30 minutes at room temperature. 10 μl of solution are taken up and the reaction is quenched by adding 10 μl of Tb-antibody solution (Invitrogen PV4757)/EDTA (2 nM Tb-Ac and 10 mM EDTA final). After 60 minutes at room temperature, the fluorescence at 490 nm, from the Tb emission, and at 520 nm, from the GFP emission, is measured in a BMG PHERAstar reader equipped with a Lanthascreen™ filter (excitation at 340 nm, emission at 490 and 520 nm). The results are given in the form of the 520/490 ratio.

PI3Kα (p110α/p85α) = PI3Kα (p110α/p85α) (Homo sapiens (Human), UniProt P42336); assay: PI3Kα enzymatic test by measuring the consumption of ATP; type: biochemical
Sequence of PI3Kα (p110α/p85α) (P42336 whole entry): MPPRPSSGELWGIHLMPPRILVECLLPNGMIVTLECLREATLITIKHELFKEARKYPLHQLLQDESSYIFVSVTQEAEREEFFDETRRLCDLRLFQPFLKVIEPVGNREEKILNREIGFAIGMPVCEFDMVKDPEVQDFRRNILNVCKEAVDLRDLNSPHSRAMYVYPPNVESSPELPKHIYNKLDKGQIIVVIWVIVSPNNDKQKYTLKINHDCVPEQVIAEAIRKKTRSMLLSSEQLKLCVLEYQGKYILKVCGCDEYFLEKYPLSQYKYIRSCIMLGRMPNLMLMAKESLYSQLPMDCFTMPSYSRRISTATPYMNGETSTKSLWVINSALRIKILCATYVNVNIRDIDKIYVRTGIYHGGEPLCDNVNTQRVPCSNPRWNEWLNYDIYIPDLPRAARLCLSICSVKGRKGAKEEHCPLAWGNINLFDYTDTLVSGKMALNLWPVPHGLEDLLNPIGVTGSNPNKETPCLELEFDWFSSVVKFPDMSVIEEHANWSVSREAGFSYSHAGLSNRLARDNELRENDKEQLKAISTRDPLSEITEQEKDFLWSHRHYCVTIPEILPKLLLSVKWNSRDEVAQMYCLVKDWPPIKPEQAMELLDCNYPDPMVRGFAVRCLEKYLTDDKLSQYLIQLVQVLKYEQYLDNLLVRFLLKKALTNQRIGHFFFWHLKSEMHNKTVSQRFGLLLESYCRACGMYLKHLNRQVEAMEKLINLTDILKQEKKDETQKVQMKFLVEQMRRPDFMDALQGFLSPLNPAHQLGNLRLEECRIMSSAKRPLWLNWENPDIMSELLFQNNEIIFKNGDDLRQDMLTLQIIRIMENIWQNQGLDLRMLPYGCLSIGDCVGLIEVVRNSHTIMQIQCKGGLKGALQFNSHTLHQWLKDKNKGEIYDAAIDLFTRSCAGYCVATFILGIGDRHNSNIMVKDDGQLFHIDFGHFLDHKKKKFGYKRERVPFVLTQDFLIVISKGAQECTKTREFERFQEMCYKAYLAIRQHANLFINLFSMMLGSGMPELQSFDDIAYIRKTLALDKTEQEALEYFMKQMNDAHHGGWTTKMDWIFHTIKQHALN
Sequence of PI3Kα (p110α/p85α) (P27986 whole entry partner): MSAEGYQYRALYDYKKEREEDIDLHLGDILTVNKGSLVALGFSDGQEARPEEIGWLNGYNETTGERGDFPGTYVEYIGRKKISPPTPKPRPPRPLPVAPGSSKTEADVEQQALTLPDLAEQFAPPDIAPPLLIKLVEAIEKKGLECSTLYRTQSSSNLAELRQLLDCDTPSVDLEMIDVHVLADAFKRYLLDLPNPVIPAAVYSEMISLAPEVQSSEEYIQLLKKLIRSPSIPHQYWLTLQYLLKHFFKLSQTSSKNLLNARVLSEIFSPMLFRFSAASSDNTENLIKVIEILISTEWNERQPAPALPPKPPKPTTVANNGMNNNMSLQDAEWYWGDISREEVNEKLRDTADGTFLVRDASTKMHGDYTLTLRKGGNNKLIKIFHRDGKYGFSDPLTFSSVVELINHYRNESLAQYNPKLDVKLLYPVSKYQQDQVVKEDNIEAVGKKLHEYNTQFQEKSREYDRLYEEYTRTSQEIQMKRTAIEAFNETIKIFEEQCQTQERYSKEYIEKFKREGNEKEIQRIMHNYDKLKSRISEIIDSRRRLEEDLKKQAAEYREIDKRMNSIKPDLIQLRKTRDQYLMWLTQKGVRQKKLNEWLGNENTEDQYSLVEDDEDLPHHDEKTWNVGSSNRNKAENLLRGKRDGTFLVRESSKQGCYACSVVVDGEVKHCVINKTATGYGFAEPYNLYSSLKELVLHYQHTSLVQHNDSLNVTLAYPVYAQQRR
Protocol: Model 2: PI3Kα Enzymatic Test by Measuring the Consumption of ATP.
The test uses a lucifeurerin/luciferase system to measure the concentration of ATP and its consumption during the enzymatic reaction. The test is performed in 96-well format (Corning/Costar 96 black flat-bottomed half-wells plate, ref. 3694) in a total volume of 30 μl.
To 1 μl of inhibitor in 100% DMSO are added (final concentrations) 50 μM of the substrate PIP2 ((L-α-phosphatidyl-D-myoinositol 4,5-bisphosphate, Echelon 117P-4516-0500), 2 μM of ATP and 1.7 μg/ml of PI3Kα, (p110α/p85α, Invitrogen PV4788) in a buffer of Tris/HCl 50 mM pH 7.5, EGTA 1 mM, MgCl2 10 mM, Chaps 0.03%, 1 mM DTT). After 90 minutes, the reaction is quenched by adding 20 μl/well of KinaseGlo reagent (Promega V6713). After 10 minutes in the dark, the luminescence is read on the PHERAStar microplate reader (reading at 0.8 sec/well).
The IC50 values are determined by the preparation of successive threefold dilutions on at least a scale of 10 000.

U87MG tumour cells = assay: Test of in vitro proliferation of U87MG tumour cells; type: cell-based; details: Homo sapiens, U-87 MG, 72 h, U87MG cells, 72 hours; read-out: U87 Cell Proliferation IC50
Protocol: Model 4: Test of in vitro Proliferation of U87MG Tumour Cells.
The cell growth is determined with the reagent CellTiter 96 AQueous One Solution Cell Proliferation Assay from Promega (Cat. No. G3581).

Sequence of mTOR (human recombinant aa mTOR 1360-2549) (P42345 1360-2549): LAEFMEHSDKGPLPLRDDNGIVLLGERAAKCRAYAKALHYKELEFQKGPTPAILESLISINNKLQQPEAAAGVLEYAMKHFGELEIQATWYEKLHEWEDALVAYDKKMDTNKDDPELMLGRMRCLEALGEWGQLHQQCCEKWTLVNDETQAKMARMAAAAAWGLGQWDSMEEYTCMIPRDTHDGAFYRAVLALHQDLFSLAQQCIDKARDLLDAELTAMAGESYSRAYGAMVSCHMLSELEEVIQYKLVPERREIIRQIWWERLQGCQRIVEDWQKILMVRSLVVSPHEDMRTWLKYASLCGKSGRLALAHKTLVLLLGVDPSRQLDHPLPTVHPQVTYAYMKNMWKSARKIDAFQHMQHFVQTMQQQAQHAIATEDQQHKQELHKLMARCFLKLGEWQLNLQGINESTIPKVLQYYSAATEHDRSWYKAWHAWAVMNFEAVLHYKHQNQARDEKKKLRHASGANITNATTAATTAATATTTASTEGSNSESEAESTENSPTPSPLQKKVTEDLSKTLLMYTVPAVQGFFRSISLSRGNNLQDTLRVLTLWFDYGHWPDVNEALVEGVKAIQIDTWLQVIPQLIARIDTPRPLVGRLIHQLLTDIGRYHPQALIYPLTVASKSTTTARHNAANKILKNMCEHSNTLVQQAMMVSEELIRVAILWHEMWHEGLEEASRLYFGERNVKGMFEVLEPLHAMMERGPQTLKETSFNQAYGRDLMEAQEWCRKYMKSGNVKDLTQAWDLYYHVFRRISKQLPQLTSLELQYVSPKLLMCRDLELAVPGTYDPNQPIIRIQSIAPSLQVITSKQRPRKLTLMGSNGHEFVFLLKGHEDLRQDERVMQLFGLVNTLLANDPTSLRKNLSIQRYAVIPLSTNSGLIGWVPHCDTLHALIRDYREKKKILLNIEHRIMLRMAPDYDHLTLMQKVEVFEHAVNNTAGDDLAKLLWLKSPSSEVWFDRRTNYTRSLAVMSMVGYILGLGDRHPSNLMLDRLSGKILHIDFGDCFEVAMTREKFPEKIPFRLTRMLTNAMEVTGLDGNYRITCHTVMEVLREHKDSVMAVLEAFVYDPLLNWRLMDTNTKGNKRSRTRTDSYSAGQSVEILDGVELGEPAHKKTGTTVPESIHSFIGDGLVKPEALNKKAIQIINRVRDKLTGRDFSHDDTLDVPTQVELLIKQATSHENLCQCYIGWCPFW

Structure (SMILES)	IC50 [1]	PI3Ka IC50 (PI3Kα (p110α/p85α))	IC50 (U87MG tumour cells)
CCN1CC(C)(C)Oc2nc(N3CC4CCC(C3)O4)nc(-c3ccc(NC(=O)Nc4cccc(OC)n4)c(F)c3)c2C1=O [Example 142, 1-{4-[6-Ethyl-8,8-dimethyl-2-(8-oxa-3-azabicyclo[3.2.1]oct-3-yl)-5-oxo-5,6,7,8-tetrahydro-9-oxa-1,3,6-triazabenzocyclohepten-4-yl]-2-fluorophenyl}-3-(6-methoxypyridin-2-yl)urea]	0.495 µM	>10 µM	3.1 µM
CCN1CC(C)(C)Oc2nc(N3CCOCC3)nc(-c3ccc(N)cc3)c2C1=O [Example 102, 4-(4-Aminophenyl)-6-ethyl-8,8-dimethyl-2-morpholin-4-yl-7,8-dihydro-6H-9-oxa-1,3,6-triazabenzocyclohepten-5-one]	0.927 µM	3.61 µM	9.83 µM
CCNC(=O)Nc1ccc(-c2nc(N3CC4CCC(C3)O4)nc3c2CN(CC)CC(C)(C)O3)cc1 [Example 113, 1-Ethyl-3-{4-[6-ethyl-8,8-dimethyl-2-(8-oxa-3-azabicyclo[3.2.1]oct-3-yl)-5,6,7,8-tetrahydro-9-oxa-1,3,6-triazabenzocyclohepten-4-yl]phenyl}urea]	3.96 µM	>10 µM	> 10 µM
CCNC(=O)Nc1ccc(-c2nc(N3C[C@@H](C)O[C@@H](C)C3)nc3c2C(=O)N(CC)CC(C)(C)O3)cc1 [Example 114, 1-{4-[2-((2S,6R)-2,6-Dimethylmorpholin-4-yl)-6-ethyl-8,8-dimethyl-5-oxo-5,6,7,8-tetrahydro-9-oxa-1,3,6-triazabenzocyclohepten-4-yl]phenyl}-3-ethylurea]	1.22 µM	>10 µM	> 10 µM
CCNC(=O)Nc1ccc(-c2nc(N3CC4CCC(C3)O4)nc3c2C(=O)N(CC)CC(C)(C)O3)cn1 [Example 17, 1-ethyl-3-{5-[6-ethyl-8,8-dimethyl-2-(8-oxa-3-azabicyclo[3.2.1]oct-3-yl)-5-oxo-5,6,7,8-tetrahydro-9-oxa-1,3,6-triazabenzocyclohepten-4-yl]pyridin-2-yl}urea]	2.49 µM	>10 µM	> 10 µM
CCN1CC(C)(C)Oc2nc(N3CC4CCC(C3)O4)nc(-c3ccc(NC(=O)NCc4ccc(OC)nc4)c(F)c3)c2C1=O [Example 145, 1-{4-[6-Ethyl-8,8-dimethyl-2-(8-oxa-3-azabicyclo[3.2.1]oct-3-yl)-5-oxo-5,6,7,8-tetrahydro-9-oxa-1,3,6-triazabenzocyclohepten-4-yl]-2-fluorophenyl}-3-(6-methoxypyridin-3-ylmethyl)urea]	2.98 µM	>10 µM	> 10 µM
CCN1CC(C)(C)Oc2nc(N3CC4CCC(C3)O4)nc(-c3ccc(NC(=O)Nc4ccnn4C)cc3)c2C1=O [Example 115, 1-{4-[6-Ethyl-8,8-dimethyl-2-(8-oxa-3-azabicyclo[3.2.1]oct-3-yl)-5-oxo-5,6,7,8-tetrahydro-9-oxa-1,3,6-triazabenzocyclohepten-4-yl]phenyl}-3-(2-methyl-2H-pyrazol-3-yl)urea]	0.147 µM	>10 µM	5 µM
CCN1CC(C)(C)Oc2nc(N3CC4CCC(C3)O4)nc(-c3ccc(NC(=O)NCC4CCCO4)c(F)c3)c2C1=O (stereo not drawn) [Example 128, 1-{4-[6-Ethyl-8,8-dimethyl-2-(8-oxa-3-azabicyclo[3.2.1]oct-3-yl)-5-oxo-5,6,7,8-tetrahydro-9-oxa-1,3,6-triazabenzocyclohepten-4-yl]-2-fluorophenyl}-3-(tetrahydrofuran-2-ylmethyl)urea]	3.48 µM	>10 µM	> 10 µM
CCNC(=O)Nc1ccc(-c2nc(N3CC4CCC(C3)O4)nc3c2C(=O)N(C[C@@H]2CCCN2C(C)=O)CC(C)(C)O3)cc1F [Example 6, 1-{4-[6-((S)-1-acetylpyrrolidin-2-ylmethyl)-8,8-dimethyl-2-(8-oxa-3-azabicyclo[3.2.1]oct-3-yl)-5-oxo-5,6,7,8-tetrahydro-9-oxa-1,3,6-triazabenzocyclohepten-4-yl]-2-fluorophenyl}-3-ethylurea]	1.07 µM	>10 µM	7.15 µM
CCNC(=O)Nc1ccc(-c2nc(N3CC4CCC(C3)O4)nc3c2C(=O)N(C[C@@H]2CCCN2C(=O)OCC)CC(C)(C)O3)cc1F [Example 5, (S)-2-[4-[4-(3-ethylureido)-3-fluorophenyl]-8,8-dimethyl-2-(8-oxa-3-azabicyclo[3.2.1]oct-3-yl)-5-oxo-7,8-dihydro-5H-9-oxa-1,3,6-triazabenzocyclohepten-6-ylmethyl]pyrrolidine-1-carboxylic acid ethyl ester]	0.905 µM	>10 µM	> 10 µM
COCCN1CC(C)(C)Oc2nc(N3CCOC[C@@H]3C)nc(-c3ccc(NC(=O)Nc4cccc(OC(F)F)c4)cc3)c2C1=O [Example 216, 1-(3-Difluoromethoxyphenyl)-3-{4-[6-(2-methoxyethyl)-8,8-dimethyl-2-((S)-3-methylmorpholin-4-yl)-5-oxo-5,6,7,8-tetrahydro-9-oxa-1,3,6-triazabenzocyclohepten-4-yl]phenyl}urea]	0.125 µM	1.83 µM	0.514 µM
CCN1CC(C)(C)Oc2nc(N3CCOCC3)nc(-c3ccc(NC(=O)NOC)cc3)c2C1=O [Example 104, 1-Methoxy-3-[4-(6-ethyl-8,8-dimethyl-2-morpholin-4-yl-5-oxo-5,6,7,8-tetrahydro-9-oxa-1,3,6-triazabenzocyclohepten-4-yl)phenyl]urea]	1.49 µM	3.75 µM	> 10 µM
CCN1CC(C)(C)Oc2nc(N3CCOCC3)nc(-c3ccc(OC)c(CO)c3)c2C1=O [Example 100, 6-Ethyl-4-(3-hydroxymethyl-4-methoxyphenyl)-8,8-dimethyl-2-morpholin-4-yl-7,8-dihydro-6H-9-oxa-1,3,6-triazabenzocyclohepten-5-one]	7.29 µM	7.44 µM	> 10 µM
CCC(=O)Nc1ccc(-c2nc(N3CC4CCC(C3)O4)nc3c2C(=O)N(CC)CC(C)(C)O3)cc1 [Example 108, N-{4-[6-Ethyl-8,8-dimethyl-2-(8-oxa-3-azabicyclo[3.2.1]oct-3-yl)-5-oxo-5,6,7,8-tetrahydro-9-oxa-1,3,6-triazabenzocyclohepten-4-yl]phenyl}propionamide]	0.472 µM	>10 µM	4.45 µM
CCN1CC(C)(C)Oc2nc(N3CC4CCC(C3)O4)nc(-c3ccc(NC(=O)Nc4ccc(OC)nc4)c(C)c3)c2C1=O [Example 175, 1-{4-[6-Ethyl-8,8-dimethyl-2-(8-oxa-3-azabicyclo[3.2.1]oct-3-yl)-5-oxo-5,6,7,8-tetrahydro-9-oxa-1,3,6-triazabenzocyclohepten-4-yl]-2-methylphenyl}-3-(6-methoxypyridin-3-yl)urea]	0.585 µM	>10 µM	3.05 µM
